This series deals with rodent carcinogenicity bioassays, tumor incidence. The series can be described thus: CCRIS carcinogenicity studies. The method, boiled down:
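Archive of carcinogenicity, mutagenicity, tumor promotion and tumor inhibition results drawn from journals, NCI reports and other sources, expert-reviewed; covers 1985-2011 and is no longer updated.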

Active and inactive are the calls of the source. The rule behind the calls is not given here.

Take `O=Nc1cc2c3ccccc3ccc2c2ccccc12`: the carcinogen call is, setting by setting: (Species: MOUSE, Strain/Sex: SWISS/FEMALE, Route: INTRAPERITONEAL, Dose: 0, 100 NMOL (TOTAL DOSE) 1/7, 2/7 AND 4/7 ADMINISTERED ON DAYS 1, 8 AND 15 OF LIFE RESPECTIVELY (STUDY DURATION: 32 WK), Tumor Site: Type of Lesion: LUNG: TUMOR) “active; positive”; (Species: MOUSE, Strain/Sex: SWISS/MALE, Route: INTRAPERITONEAL, Dose: 0, 100 NMOL (TOTAL DOSE) 1/7, 2/7 AND 4/7 ADMINISTERED ON DAYS 1, 8 AND 15 OF LIFE RESPECTIVELY (STUDY DURATION: 32 WK), Tumor Site: Type of Lesion: LUNG: TUMOR, LIVER: TUMOR) “active; positive”.
With `CCSC(C)CC1CC(=O)C(/C(CC)=N/OC/C=C/Cl)=C(O)C1` (stereo unspecified), the carcinogen call was “inactive; negative (study details not given in source; purity 83.3%)” (Species: Mouse, Strain/Sex: ???/Female (50/group), Route: Oral, Dose: 0, 20, 200, 1,000, 2,000 ppm increased to 3,000 ppm after 15th wk in diet for 78 wk, Dose: 0, 20, 200, 1,000, 2,000 ppm increased to 3,000 ppm after 15th wk in diet for 78 wk) and “inactive; negative (study details not given in source; purity 83.3%)” (Species: Mouse, Strain/Sex: ???/Male (50/group), Route: Oral, Dose: 0, 20, 200, 1,000, 2,000 ppm increased to 3,000 ppm after 15th wk in diet for 78 wk, Dose: 0, 20, 200, 1,000, 2,000 ppm increased to 3,000 ppm after 15th wk in diet for 78 wk).
With `O=C(O)CCCOc1ccc(Cl)cc1Cl`, the carcinogen call (Species: MOUSE, Strain/Sex: ICR/FEMALE, Route: ORAL, Dose: 0, 25, 250, 750 PPM IN DIET FOR 78 WK (STUDY DURATION: 78 WK), Dose: 0, 25, 250, 750 PPM IN DIET FOR 78 WK (STUDY DURATION: 78 WK)) is “inactive; negative”; the carcinogen call (Species: MOUSE, Strain/Sex: ICR/MALE, Route: ORAL, Dose: 0, 25, 250, 750 PPM IN DIET FOR 78 WK (STUDY DURATION: 78 WK), Dose: 0, 25, 250, 750 PPM IN DIET FOR 78 WK (STUDY DURATION: 78 WK)) was “inactive; negative”; the carcinogen call (Species: RAT, Strain/Sex: SPRAGUE-DAWLEY/FEMALE, Route: ORAL, Dose: 0, 60, 600, 1800 PPM IN DIET FOR 104 WK (STUDY DURATION: 104 WK), Dose: 0, 60, 600, 1800 PPM IN DIET FOR 104 WK (STUDY DURATION: 104 WK)) is “inactive; negative”; the carcinogen call (Species: RAT, Strain/Sex: SPRAGUE-DAWLEY/MALE, Route: ORAL, Dose: 0, 60, 600, 1800 PPM IN DIET FOR 104 WK (STUDY DURATION: 104 WK), Dose: 0, 60, 600, 1800 PPM IN DIET FOR 104 WK (STUDY DURATION: 104 WK)) was “inactive; negative”.
On to `O=NC(=O)CCNCCO`, for which the carcinogen call (Species: RAT, Strain/Sex: F344/FEMALE, Route: ORAL, Dose: 0, 50 MG/L DRINKING WATER 5 D/WK FOR 50 WK (TOTAL DOSE 250 MG) (STUDY DURATION: LIFESPAN), Tumor Site: Type of Lesion: ESOPHAGUS: CARCINOMA, PAPILLOMA, TONGUE: CARCINOMA, PAPILLOMA) is “active; positive”.
In the case of `CCO`, the carcinogen call by setting is: (Species: MOUSE, Strain/Sex: B6C3F1/FEMALE (48/GROUP), Route: ORAL, Dose: 2.5% OR 5% IN DRINKING WATER (STUDY DURATION: 2 YRS)) “inactive; negative; inadequate study to determine carcinogenic activity”; (Species: MOUSE, Strain/Sex: B6C3F1/MALE (48/GROUP), Route: ORAL, Dose: 2.5% OR 5% IN DRINKING WATER (STUDY DURATION: 2 YRS), Tumor Site: Type of Lesion: LIVER: HEPATOCELLULAR ADENOMA OR CARCINOMA (COMBINED)) “active; positive; inadequate study to determine carcinogenic activity”; (Species: RAT, Strain/Sex: SPRAGUE-DAWLEY/FEMALE, Route: ORAL, Dose: 0, 1, 3% IN LIQUID DIET FOR 104 WK (STUDY DURATION: 120 WK), Dose: 0, 1, 3% IN LIQUID DIET FOR 104 WK (STUDY DURATION: 120 WK)) “inactive; negative”; (Species: RAT, Strain/Sex: SPRAGUE-DAWLEY/MALE, Route: ORAL, Dose: 0, 1, 3% IN LIQUID DIET FOR 104 WK (STUDY DURATION: 120 WK), Dose: 0, 1, 3% IN LIQUID DIET FOR 104 WK (STUDY DURATION: 120 WK)) “inactive; negative”.
For `CN=NCc1ccc(C(=O)NC(C)C)cc1`, the carcinogen call (Species: MOUSE, Strain/Sex: CDF1/MALE, Route: GAVAGE, Dose: 0, 300 MG/KG IN 0.01 ML OF 0.5% AQUEOUS SOLUTION OF SODIUM CARBOXYMETHYL CELLULOSE 1/WK FOR 4 WK THEN 0, 400 MG/KG 1/WK, Dose: 0, 300 MG/KG IN 0.01 ML OF 0.5% AQUEOUS SOLUTION OF SODIUM CARBOXYMETHYL CELLULOSE 1/WK FOR 4 WK THEN 0, 400 MG/KG 1/WK, Tumor Site: Type of Lesion: PULMONARY SYSTEM: TUMOR, KIDNEY: CYSTADENOMA) is “active; positive”.
Take `Nc1cc([N+](=O)[O-])ccc1NC(CO)(CO)CO`: the carcinogen call was “active; positive” (Species: RAT, Strain/Sex: SPRAGUE-DAWLEY/FEMALE, Route: ORAL, Dose: 0, 0.2, 0.6, 2% IN DIET OF MATED AND NONMATED RATS FOR UP TO 6 MO (STUDY DURATION: 6 MO), Dose: 0, 0.2, 0.6, 2% IN DIET OF MATED AND NONMATED RATS FOR UP TO 6 MO (STUDY DURATION: 6 MO), Tumor Site: Type of Lesion: MAMMARY GLAND: TUMOR) and “inactive; negative” (Species: RAT, Strain/Sex: SPRAGUE-DAWLEY/MALE, Route: ORAL, Dose: 0, 0.2, 0.6, 2% IN DIET FOR UP TO 6 MO (STUDY DURATION: 6 MO), Dose: 0, 0.2, 0.6, 2% IN DIET FOR UP TO 6 MO (STUDY DURATION: 6 MO)).
Take `CCc1cc(Cc2cc(CC)cc(C(C)(C)C)c2O)c(O)c(C(C)(C)C)c1`: the carcinogen call (Species: RAT, Strain/Sex: WISTAR/MALE, Route: ORAL, Dose: 0, 0.03, 0.1, 0.3% IN DIET FOR DURATION OF STUDY (STUDY DURATION: 18 MO), Dose: 0, 0.03, 0.1, 0.3% IN DIET FOR DURATION OF STUDY (STUDY DURATION: 18 MO)) was “inactive; negative”.
Regarding `CCCOC(=O)c1cc(O)c(O)c(O)c1`, the carcinogen call reads like this: (Species: MOUSE, Strain/Sex: B6C3F1/FEMALE, Route: ORAL, Dose: 0, 6000, 12000 PPM IN DIET FOR 103 WK (STUDY DURATION: 103 WK), Dose: 0, 6000, 12000 PPM IN DIET FOR 103 WK (STUDY DURATION: 103 WK)) “inactive; negative”; (Species: MOUSE, Strain/Sex: B6C3F1/MALE, Route: ORAL, Dose: 0, 6000, 12000 PPM IN DIET FOR 103 WK (STUDY DURATION: 103 WK), Dose: 0, 6000, 12000 PPM IN DIET FOR 103 WK (STUDY DURATION: 103 WK), Tumor Site: Type of Lesion: HEMATOPOIETIC SYSTEM: MALIGNANT LYMPHOMA) “equivocal”; (Species: RAT, Strain/Sex: F344/FEMALE, Route: ORAL, Dose: 0, 6000, 12000 PPM IN DIET FOR 103 WK (STUDY DURATION: 103 WK), Dose: 0, 6000, 12000 PPM IN DIET FOR 103 WK (STUDY DURATION: 103 WK)) “inactive; negative”; (Species: RAT, Strain/Sex: F344/MALE, Route: ORAL, Dose: 0, 6000, 12000 PPM IN DIET FOR 103 WK (STUDY DURATION: 103 WK), Dose: 0, 6000, 12000 PPM IN DIET FOR 103 WK (STUDY DURATION: 103 WK), Tumor Site: Type of Lesion: PREPUTIAL GLAND: CARCINOMA OR ADENOMA OR ADENOCARCINOMA, PANCREAS: ISLET CELL ADENOMA OR CARCINOMA, ADRENAL GLAND: PHEOC, Tumor Site: Type of Lesion: PREPUTIAL GLAND: CARCINOMA OR ADENOMA OR ADENOCARCINOMA, PANCREAS: ISLET CELL ADENOMA OR CARCINOMA, ADRENAL GLAND: PHEOC) “equivocal”.

The values are drawn from PubChem BioAssay AID1259411 (Chemical Carcinogenesis Research Information System (CCRIS), 2018).
